Here are results for one molecule from PubChem BioAssay AID588327 (The Scripps Research Institute Molecular Screening Center, 2011).

This assay deals with Sphingosine 1-phosphate receptor 3 (Homo sapiens) (UniProt Q99500). In words: S1P3 radioligand displacement, late-stage follow-up, mechanism study for S1P3 agonist project, cell-based, [33P]S1P, radiometric, dose response (AID 588327). Particulars: S1P3 membranes, [33P]S1P competition binding, CPM. (In a radioligand displacement assay an active substance lowers the binding of a labelled ligand.)
Sphingosine 1-phosphate receptor 3 (Homo sapiens), sequence (Q99500 whole entry, looked up): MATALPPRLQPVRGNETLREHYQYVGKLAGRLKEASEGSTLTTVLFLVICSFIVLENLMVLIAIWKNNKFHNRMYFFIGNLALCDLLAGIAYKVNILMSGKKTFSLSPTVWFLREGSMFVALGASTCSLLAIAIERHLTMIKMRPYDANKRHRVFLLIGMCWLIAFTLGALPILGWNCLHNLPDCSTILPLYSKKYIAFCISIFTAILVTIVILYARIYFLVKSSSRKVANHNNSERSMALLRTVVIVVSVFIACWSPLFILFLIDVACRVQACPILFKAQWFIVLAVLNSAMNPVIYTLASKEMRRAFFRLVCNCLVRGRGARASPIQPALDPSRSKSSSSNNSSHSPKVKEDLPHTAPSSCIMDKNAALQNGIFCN

Activity calls are given as the source filed them. How the calls were made is not given here.

`O=C(c1cc(C2CC2)on1)N(C1CCCCC1)C1CCCCC1`: the IC50 (in general, the midpoint of a concentration-inhibition curve) is > 10 µM (inactive).
